Patent US4906621A, “Certain 2-carboxypiperidyl-alkylene phosphonic acids and esters thereof useful for the treatment of disorders responsive to N-methyl-D-aspartate receptor blockade” (Ciba-Geigy Corporation, priority 1987, dated 1990)
pIC50: −log10 of the molar value.

Experiments:
[1] = system: mongolian gerbil; test: mongolian gerbil ischemia model; type: in vivo; settings: 10 mg/Kg ip, administered either before or after the ischemia episode
From the text: The cerebral antiischemic activity, that is the effect of the compounds of the invention in preventing or reducing brain damage in mammals due to a transient cerebral ischemia (as in a stroke) can be determined in the mongolian gerbil ischemia model, e.g. the model described by T. Kirino, Brain Research 239, 57-69 (1982).
The inhibitory effect on the observed hyperactivity and on the degeneration of neurons in the hippocampus region of the brain following a 5-minute period of ischemia is measured.
The test compound is administered i.p. 15 minutes before the ischemia or 2, 4, and 6 hours post ischemia.

[2] = Cook/Davidson conflict model for anxiolytic activity; type: in vivo; settings: ip; read-out: dose active in the Cook/Davidson test for anxiolytic activity
From the text: Indicative of anxiolytic activity, compounds of the invention are effective in the Cook/Davidson conflict model (Psychopharmacologia 15, 159-168 (1969).

[3] = system: NMDA-type excitatory amino acid receptors; test: inhibition of NMDA-evoked 3H-acetylcholine release from rat striatal tissue slices; type: cell-based; settings: stimulation with 50 uM NMDA, read-out: IC50 in the in vitro NMDA-evoked 3H-ACh release test
Experimental: The inhibitory effect on the NMDA-type excitatory amino acid receptors is determined in vitro by measuring the inhibition of the NMDA-evoked ^3 H-acetylcholine (^3 H-ACh) release from corpus striatum tissue of rat brain, according to J. Lehmann and B. Scatton, Brain Research 252, 77-89 (1982) and Nature 297, 422-424 (1982).
Antagonists of NMDA-type excitatory amino acid receptors competitively antagonize NMDA-evoked ^3 H-acetylcholine (^3 H-ACh) release from corpus striatum tissue of the brain.
The inhibition of the NMDA-evoked ^3 H-acetylcholine (^3 H-ACh) release from rat striatal tissue slices by a compound of the invention is expressed as % of release of ^3 H-ACh in response to stimulation with 50 uM NMDA compared to control. Tests are two-tailed with a minimum of n=4 in each group. In IC50 values represent the concentration of test compound required to inhibit the NMDA-increased ^3 H-ACh release by 50%.

[4] = system: DBA/2 mice; test: audiogenic-induced seizures in DBA/2 mice; type: in vivo; settings: Mus musculus, ip, 0.75 h, i.p. administration, read-out: ED50 in the audiogenic-induced seizure model
Experimental: Further indicative of the anticonvulsant activity, compounds of the invention are effective in preventing audiogenic-induced seizures in DBA/2 mice (Chapman et al., Arzneim.-Forsch. 34:1261, 1984).
The effect is determined as follows:
Forty-five minutes following compound or vehicle administration, mice are placed individually in a soundproof chamber. After a 30 second accommodation period, the mice are exposed to a sound stimulation of 110 dB for 1 minute or until the appearance of a tonic-clonic seizure. Control seizures consist of an initial wild running phase. The prevention of wild running is indicative of an anticonvulsant effect.
Test compounds in either distilled water solution or in a 3% (w/v) colloidal cornstarch suspension containing 5% (w/v) polyethyleneglycol 400 and 0.34% (w/v) Tween 80, are administered by oral intubation or intraperitoneally in a volume of 10 ml/kg of body weight.

[5] = relative pharmacological activity of enantiomers (test not specified); settings: enantiomers of the compound of Example 2

Compound: O=C(O)[C@H]1C[C@@H](CP(=O)(O)O)CCN1 (relative stereo) [cis-4-phosphonomethyl-2-piperidine-carboxylic acid]
- effect on degeneration of cerebral neurons in the hippocampus region of the brain [1]: reduces the degeneration of cerebral neurons
- effect on ischemia-induced hyperactivity of the gerbil [1]: inhibits the ischemia-induced hyperactivity
- minimal effective dose [2]: ~2 mg/kg

Compound: O=C(O)[C@@H]1C[C@H](CP(=O)(O)O)CCN1 (relative stereo) [cis-4-phosphonomethyl-2-piperidinecarboxylic acid hyrdochloride]
- pIC50 [3]: ~5.10
- ED50 [4]: ~1.8 mg/kg

Compound: O=C(O)[C@H]1C[C@@H](CP(=O)(O)O)CCN1 (single isomer, unassigned) [(+)-cis-4-phosphonomethyl-2-piperidinecarboxylic acid]
- pharmacological activity relative to the other enantiomer [5]: less active enantiomer

Compound: O=C(O)[C@H]1C[C@@H](CP(=O)(O)O)CCN1 (single isomer, unassigned) [(-)-cis-4-phosphonomethyl-2-piperidinecarboxylic acid]
- pharmacological activity relative to the other enantiomer [5]: more active enantiomer
